Measurements as given in ChEMBL document CHEMBL5212743, “Selectivity Literature for EUbOPEN Chemogenomics Library wave 3” (2023).

Key:
[1] = biological target: Phosphatidylinositol 4,5-bisphosphate 3-kinase catalytic subunit beta isoform (Homo sapiens) (UniProt P42338); assay: Selectivity interaction (KinomeScan (DiscoverX)) EUB0000014b PIK3CB; conditions: at 1 µM
[2] = biological target: CREB-binding protein (Homo sapiens, UniProt Q92793); assay: Selectivity interaction (Bromodomain panel (DSF assay)) EUB0000330a CREBBP
[3] = biological target: Substance-K receptor (Homo sapiens) (UniProt P21452); assay: Selectivity interaction (CEREP panel (ligand receptors, ion channels, transporters)) EUB0000330a TACR2; conditions: at 1 µM
[4] = biological target: Mitogen-activated protein kinase kinase kinase 7 (Homo sapiens) (UniProt O43318); assay: Selectivity interaction (Dundee panel (140 kinases and 19 lipid kinases)) EUB0000631a MAP3K7; conditions: at 1 µM
[5] = biological target: Serine/threonine-protein kinase 17A (Homo sapiens) (UniProt Q9UEE5); assay: Selectivity interaction (Kinase panel (ProQinase)) EUB0000631a STK17A; conditions: at 1 µM
[6] = biological target: T1, Mitogen-activated protein kinase 15 (Homo sapiens) (UniProt Q8TD08); assay: Selectivity interaction (Dundee panel (140 kinases and 19 lipid kinases)) EUB0000631a MAPK15; conditions: at 1 µM
T1 sequence (whole entry): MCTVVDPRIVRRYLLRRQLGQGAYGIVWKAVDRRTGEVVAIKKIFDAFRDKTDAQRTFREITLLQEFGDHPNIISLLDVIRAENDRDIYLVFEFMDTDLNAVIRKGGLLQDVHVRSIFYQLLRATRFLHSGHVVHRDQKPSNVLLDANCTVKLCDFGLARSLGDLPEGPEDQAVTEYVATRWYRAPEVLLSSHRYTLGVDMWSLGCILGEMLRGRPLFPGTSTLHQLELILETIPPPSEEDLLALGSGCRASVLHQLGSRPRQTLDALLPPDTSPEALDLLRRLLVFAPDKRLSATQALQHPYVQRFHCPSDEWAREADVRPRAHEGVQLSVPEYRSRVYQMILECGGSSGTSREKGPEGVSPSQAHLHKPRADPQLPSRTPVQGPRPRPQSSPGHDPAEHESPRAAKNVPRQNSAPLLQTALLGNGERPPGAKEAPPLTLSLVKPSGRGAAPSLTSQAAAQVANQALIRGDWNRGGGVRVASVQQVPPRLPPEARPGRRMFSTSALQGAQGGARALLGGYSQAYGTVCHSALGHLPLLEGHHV

[7] = biological target: Receptor-type tyrosine-protein kinase FLT3 (Homo sapiens) (UniProt P36888); assay: Selectivity interaction (Kinase panel) EUB0000214b FLT3; conditions: at […]
[8] = biological target: cGMP-dependent 3',5'-cyclic phosphodiesterase (Homo sapiens) (UniProt O00408); assay: Selectivity interaction (Eurofins CEREP Diversity Profiling (71 receptors, ion channels, and 25 other enzymes)) EUB0000231c PDE2A; conditions: at 10 µM
[9] = biological target: cGMP-inhibited 3',5'-cyclic phosphodiesterase 3A (Homo sapiens, UniProt Q14432); assay: Selectivity interaction (Eurofins CEREP Diversity Profiling (71 receptors, ion channels, and 25 other enzymes)) EUB0000231c PDE3A; conditions: at 10 µM
[10] = biological target: T2, Gamma-aminobutyric acid receptor subunit alpha-1 (Homo sapiens) (UniProt P14867); assay: Selectivity interaction (Eurofins CEREP Diversity Profiling (71 receptors, ion channels, and 25 other enzymes)) EUB0000231c GABRA1; conditions: at 10 µM
T2 sequence (whole entry): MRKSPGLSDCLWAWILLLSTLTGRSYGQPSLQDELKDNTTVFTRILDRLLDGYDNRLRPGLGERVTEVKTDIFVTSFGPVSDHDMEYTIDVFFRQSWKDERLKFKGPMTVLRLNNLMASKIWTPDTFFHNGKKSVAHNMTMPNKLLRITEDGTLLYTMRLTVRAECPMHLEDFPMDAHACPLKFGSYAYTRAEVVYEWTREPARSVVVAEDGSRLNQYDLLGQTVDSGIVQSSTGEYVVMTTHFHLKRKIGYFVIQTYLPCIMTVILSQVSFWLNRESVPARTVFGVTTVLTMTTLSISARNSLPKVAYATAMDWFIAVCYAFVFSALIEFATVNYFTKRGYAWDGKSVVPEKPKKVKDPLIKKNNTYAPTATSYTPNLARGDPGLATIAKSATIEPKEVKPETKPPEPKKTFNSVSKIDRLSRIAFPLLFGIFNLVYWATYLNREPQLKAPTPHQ

[11] = biological target: 3',5'-cyclic-AMP phosphodiesterase 4D (Homo sapiens) (UniProt Q08499); assay: Selectivity interaction (Eurofins CEREP Diversity Profiling (71 receptors, ion channels, and 25 other enzymes)) EUB0000231c PDE4D; conditions: at 10 µM
[12] = biological target: T3, Adenosine receptor A1 (Homo sapiens) (UniProt P30542); assay: Selectivity interaction (Eurofins CEREP Diversity Profiling (71 receptors, ion channels, and 25 other enzymes)) EUB0000231c ADORA1; conditions: at 10 µM
T3 sequence (whole entry): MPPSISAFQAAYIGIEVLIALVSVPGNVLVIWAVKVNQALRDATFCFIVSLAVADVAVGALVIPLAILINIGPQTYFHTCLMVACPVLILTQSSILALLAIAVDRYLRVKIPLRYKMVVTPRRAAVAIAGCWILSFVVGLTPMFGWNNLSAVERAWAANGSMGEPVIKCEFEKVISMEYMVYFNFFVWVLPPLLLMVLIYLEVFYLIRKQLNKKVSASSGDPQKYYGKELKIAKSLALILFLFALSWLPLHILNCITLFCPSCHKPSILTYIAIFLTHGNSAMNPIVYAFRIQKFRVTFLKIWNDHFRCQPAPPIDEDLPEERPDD

[13] = biological target: Serine/threonine-protein kinase 38-like (Homo sapiens, UniProt Q9Y2H1); assay: Selectivity interaction (KinomeScan (DiscoverX)) EUB0000317b STK38L; conditions: at 1 µM
[14] = biological target: 5-hydroxytryptamine receptor 7 (Homo sapiens, UniProt P34969); assay: Selectivity interaction (GPCR panel (PDSP screen)) EUB0000317b HTR7; conditions: at 10 µM
[15] = biological target: Serine/threonine-protein kinase DCLK2 (Homo sapiens) (UniProt Q8N568); assay: Selectivity interaction (KinomeScan (Ambit)) EUB0000687a DCLK2; conditions: at 10 µM
[16] = biological target: Serine/threonine-protein kinase PLK4 (Homo sapiens) (UniProt O00444); assay: Selectivity interaction (KinomeScan (Ambit)) EUB0000687a PLK4; conditions: at 10 µM
[17] = tested on: Receptor-type tyrosine-protein kinase FLT3 (Homo sapiens), P36888 [UNDEFINED MUTATION]; assay: Selectivity interaction (KinomeScan (DiscoverX)) EUB0000315b FLT3; conditions: at 1 µM
[18] = biological target: MAP/microtubule affinity-regulating kinase 3 (Homo sapiens) (UniProt P27448); assay: Selectivity interaction (KinomeScan (DiscoverX)) EUB0000315b MARK3; conditions: at 1 µM
[19] = biological target: SRSF protein kinase 2 (Homo sapiens) (UniProt P78362); assay: Selectivity interaction (KinomeScan (DiscoverX)) EUB0000315b SRPK2; conditions: at 1 µM
[20] = biological target: Serine/threonine-protein kinase Nek5 (Homo sapiens) (UniProt Q6P3R8); assay: Selectivity interaction (KinomeScan (DiscoverX)) EUB0000336a NEK5; conditions: at 1 µM
[21] = biological target: 5-hydroxytryptamine receptor 2B (Homo sapiens, UniProt P41595); assay: Selectivity interaction (GPCR panel (PDSP screen)) EUB0000336a HTR2B; conditions: at 1 µM
[22] = biological target: T4, Phosphatidylinositol 5-phosphate 4-kinase type-2 gamma (Homo sapiens) (UniProt Q8TBX8); assay: Selectivity interaction (KinomeScan (DiscoverX)) EUB0000336a PIP4K2C; conditions: at 1 µM
T4 sequence (whole entry): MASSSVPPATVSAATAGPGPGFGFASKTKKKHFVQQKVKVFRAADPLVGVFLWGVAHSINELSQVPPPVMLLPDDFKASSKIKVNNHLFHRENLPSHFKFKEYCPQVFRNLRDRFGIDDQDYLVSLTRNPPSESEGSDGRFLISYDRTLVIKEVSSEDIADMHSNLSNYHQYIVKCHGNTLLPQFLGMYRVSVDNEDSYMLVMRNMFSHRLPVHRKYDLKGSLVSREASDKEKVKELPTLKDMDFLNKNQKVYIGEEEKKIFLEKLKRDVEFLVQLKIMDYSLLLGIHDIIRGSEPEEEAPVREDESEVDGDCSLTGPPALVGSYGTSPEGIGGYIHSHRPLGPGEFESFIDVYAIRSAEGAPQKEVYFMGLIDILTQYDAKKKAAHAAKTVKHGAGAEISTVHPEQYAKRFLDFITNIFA

[23] = biological target: Phosphatidylinositol 4,5-bisphosphate 3-kinase catalytic subunit alpha isoform (Homo sapiens, UniProt P42336); assay: Selectivity interaction (KinomeScan (DiscoverX)) EUB0000336a PIK3CA; conditions: at 1 µM
[24] = biological target: Tyrosine-protein kinase receptor Tie-1 (Homo sapiens) (UniProt P35590); assay: Selectivity interaction (KinomeScan (DiscoverX)) EUB0000336a TIE1; conditions: at 1 µM
[25] = biological target: Epidermal growth factor receptor (Homo sapiens, UniProt P00533); assay: Selectivity interaction (KinomeScan (DiscoverX)) EUB0000336a EGFR; conditions: at 1 µM
[26] = biological target: Casein kinase I isoform epsilon (Homo sapiens, UniProt P49674); assay: Selectivity interaction (Radioisotope filter binding assay (Reaction Biology)) EUB0000696a CSNK1E; conditions: at 1 µM

Sequence of 3',5'-cyclic-AMP phosphodiesterase 4D (Homo sapiens) (Q08499 whole entry): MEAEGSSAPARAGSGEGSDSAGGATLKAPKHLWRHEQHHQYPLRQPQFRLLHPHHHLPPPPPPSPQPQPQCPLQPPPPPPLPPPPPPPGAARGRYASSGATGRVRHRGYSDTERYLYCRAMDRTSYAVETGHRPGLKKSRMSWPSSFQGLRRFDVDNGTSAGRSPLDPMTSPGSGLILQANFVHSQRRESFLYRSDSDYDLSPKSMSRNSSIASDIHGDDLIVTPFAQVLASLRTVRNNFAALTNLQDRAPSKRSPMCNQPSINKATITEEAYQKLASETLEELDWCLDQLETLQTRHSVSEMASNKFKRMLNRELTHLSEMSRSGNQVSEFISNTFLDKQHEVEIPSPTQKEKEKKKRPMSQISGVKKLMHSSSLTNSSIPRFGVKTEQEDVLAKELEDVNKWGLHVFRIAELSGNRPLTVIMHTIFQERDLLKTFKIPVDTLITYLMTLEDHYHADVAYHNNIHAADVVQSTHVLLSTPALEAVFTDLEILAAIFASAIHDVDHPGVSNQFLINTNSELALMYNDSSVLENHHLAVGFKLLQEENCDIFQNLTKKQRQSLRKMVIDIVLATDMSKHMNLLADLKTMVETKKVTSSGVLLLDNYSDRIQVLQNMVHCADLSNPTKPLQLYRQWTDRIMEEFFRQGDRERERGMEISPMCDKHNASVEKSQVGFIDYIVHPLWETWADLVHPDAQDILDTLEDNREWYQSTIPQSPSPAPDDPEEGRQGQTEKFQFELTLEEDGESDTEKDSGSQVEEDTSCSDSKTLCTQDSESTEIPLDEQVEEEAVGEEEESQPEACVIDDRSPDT
Sequence of Serine/threonine-protein kinase DCLK2 (Homo sapiens) (Q8N568 whole entry): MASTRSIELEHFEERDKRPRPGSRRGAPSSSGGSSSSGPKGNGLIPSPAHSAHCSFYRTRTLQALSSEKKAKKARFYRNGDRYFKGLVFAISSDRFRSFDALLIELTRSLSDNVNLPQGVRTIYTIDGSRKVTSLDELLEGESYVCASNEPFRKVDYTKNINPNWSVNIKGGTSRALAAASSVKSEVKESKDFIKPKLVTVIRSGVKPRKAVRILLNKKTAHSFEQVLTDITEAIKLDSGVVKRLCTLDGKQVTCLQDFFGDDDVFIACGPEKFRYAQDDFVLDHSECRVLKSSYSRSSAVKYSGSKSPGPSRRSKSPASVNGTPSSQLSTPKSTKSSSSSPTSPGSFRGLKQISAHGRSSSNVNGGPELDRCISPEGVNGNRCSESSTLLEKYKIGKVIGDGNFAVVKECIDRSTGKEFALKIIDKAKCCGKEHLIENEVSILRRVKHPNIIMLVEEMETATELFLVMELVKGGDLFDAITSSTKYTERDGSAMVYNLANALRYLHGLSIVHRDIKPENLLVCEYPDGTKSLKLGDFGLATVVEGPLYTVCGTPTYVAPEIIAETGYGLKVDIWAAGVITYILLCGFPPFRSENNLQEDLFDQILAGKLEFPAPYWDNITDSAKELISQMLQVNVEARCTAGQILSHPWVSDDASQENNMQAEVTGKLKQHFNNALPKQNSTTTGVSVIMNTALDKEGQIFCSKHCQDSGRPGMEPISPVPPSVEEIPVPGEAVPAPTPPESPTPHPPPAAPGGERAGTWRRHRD
Sequence of Phosphatidylinositol 4,5-bisphosphate 3-kinase catalytic subunit beta isoform (Homo sapiens) (P42338 whole entry, looked up, canonical isoform): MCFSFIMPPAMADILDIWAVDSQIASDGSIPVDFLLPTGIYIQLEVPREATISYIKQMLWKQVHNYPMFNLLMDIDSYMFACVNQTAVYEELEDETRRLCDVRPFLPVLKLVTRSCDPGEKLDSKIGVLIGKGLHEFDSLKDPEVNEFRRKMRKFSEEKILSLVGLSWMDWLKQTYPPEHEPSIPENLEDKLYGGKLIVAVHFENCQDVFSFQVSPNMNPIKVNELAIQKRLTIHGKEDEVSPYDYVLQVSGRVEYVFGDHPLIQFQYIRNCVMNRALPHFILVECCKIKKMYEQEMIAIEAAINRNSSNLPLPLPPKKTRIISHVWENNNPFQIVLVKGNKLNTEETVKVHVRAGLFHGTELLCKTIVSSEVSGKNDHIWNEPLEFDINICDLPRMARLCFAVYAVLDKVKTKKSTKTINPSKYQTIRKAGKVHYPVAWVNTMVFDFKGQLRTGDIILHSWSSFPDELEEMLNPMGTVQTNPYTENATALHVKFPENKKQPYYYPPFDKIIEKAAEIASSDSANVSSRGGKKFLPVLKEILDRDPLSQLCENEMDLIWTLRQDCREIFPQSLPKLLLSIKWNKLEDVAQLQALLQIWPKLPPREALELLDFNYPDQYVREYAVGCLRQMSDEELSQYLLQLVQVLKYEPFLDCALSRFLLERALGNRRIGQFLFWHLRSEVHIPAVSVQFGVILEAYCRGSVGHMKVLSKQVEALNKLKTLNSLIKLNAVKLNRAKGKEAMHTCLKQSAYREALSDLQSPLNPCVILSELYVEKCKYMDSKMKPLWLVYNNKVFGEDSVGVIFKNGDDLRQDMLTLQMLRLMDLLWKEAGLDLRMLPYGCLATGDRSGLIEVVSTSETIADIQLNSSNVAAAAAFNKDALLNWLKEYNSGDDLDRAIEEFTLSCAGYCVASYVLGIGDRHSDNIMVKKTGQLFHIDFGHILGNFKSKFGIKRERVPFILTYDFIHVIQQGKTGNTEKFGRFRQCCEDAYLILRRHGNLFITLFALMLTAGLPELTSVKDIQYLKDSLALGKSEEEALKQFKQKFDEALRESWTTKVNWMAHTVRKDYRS
Sequence of Serine/threonine-protein kinase Nek5 (Homo sapiens) (Q6P3R8 whole entry): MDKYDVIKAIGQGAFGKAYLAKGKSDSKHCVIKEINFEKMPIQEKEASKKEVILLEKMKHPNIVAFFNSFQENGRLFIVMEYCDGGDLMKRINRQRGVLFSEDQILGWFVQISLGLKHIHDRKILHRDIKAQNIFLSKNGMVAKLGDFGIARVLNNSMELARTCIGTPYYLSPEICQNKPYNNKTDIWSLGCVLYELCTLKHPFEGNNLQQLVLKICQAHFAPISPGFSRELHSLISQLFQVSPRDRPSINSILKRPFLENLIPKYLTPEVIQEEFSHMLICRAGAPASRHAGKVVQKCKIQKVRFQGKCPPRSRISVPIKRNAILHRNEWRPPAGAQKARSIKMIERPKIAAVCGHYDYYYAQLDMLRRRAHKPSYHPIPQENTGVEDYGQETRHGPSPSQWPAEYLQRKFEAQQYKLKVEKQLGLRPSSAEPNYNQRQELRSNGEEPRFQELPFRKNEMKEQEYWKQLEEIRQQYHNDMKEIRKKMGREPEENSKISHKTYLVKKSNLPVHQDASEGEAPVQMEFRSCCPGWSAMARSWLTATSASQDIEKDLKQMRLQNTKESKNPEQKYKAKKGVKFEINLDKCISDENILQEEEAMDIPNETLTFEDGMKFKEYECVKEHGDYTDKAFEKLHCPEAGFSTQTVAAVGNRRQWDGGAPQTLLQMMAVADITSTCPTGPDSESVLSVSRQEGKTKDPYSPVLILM
Sequence of Tyrosine-protein kinase receptor Tie-1 (Homo sapiens) (P35590 whole entry): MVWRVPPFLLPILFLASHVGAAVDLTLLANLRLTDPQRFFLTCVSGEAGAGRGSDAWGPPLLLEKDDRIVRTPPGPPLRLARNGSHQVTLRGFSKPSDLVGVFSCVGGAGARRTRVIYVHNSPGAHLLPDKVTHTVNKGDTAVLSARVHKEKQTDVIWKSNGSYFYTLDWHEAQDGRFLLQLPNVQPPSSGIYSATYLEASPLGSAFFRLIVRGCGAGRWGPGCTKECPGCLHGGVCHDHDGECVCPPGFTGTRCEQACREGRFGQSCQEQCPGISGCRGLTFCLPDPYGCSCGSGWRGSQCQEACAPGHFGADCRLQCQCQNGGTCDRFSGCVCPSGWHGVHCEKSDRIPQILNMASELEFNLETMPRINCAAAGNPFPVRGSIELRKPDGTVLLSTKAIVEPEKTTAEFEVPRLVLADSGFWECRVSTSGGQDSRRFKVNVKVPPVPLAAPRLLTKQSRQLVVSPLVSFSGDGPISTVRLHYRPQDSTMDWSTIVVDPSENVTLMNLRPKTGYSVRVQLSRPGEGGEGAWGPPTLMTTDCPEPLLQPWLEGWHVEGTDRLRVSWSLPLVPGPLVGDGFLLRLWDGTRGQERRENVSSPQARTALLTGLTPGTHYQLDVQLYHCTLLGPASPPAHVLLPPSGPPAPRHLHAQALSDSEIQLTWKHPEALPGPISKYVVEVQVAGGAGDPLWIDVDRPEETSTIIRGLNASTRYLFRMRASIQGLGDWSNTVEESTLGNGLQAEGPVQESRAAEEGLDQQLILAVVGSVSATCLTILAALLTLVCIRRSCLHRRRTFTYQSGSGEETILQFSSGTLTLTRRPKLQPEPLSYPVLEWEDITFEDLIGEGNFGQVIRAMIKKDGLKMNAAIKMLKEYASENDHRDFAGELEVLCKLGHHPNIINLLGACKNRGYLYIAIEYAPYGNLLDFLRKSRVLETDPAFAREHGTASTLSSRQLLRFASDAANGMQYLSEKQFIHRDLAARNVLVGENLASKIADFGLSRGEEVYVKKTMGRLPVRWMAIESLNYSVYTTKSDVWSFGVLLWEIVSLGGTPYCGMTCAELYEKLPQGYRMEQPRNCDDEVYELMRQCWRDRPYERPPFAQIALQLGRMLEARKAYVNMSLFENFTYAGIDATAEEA
Sequence of Serine/threonine-protein kinase 17A (Homo sapiens) (Q9UEE5 whole entry): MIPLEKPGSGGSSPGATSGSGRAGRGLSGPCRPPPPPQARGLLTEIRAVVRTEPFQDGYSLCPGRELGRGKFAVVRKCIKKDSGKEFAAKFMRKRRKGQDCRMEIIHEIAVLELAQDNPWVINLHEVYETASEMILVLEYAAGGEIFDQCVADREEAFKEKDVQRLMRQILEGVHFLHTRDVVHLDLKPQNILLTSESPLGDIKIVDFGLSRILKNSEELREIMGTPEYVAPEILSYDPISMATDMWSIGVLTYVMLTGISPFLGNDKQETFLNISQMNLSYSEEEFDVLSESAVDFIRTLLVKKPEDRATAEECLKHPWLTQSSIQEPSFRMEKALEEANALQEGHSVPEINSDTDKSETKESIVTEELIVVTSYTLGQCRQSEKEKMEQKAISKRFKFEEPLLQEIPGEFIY

Nc1ccc(C(=O)Nc2cccc(-c3nc(N4CCOCC4)c4oc5ncccc5c4n3)c2)cn1
% of control [1]: 9.8%

Cc1sc2c(c1C)C(c1ccc(Cl)cc1)=N[C@@H](CC(=O)OC(C)(C)C)c1nnc(C)n1-2
dTm [2]: 1.04 K | % bound fraction [3]: 48%

CC(C)(O)CNc1ncc(-c2ccnc(Nc3ccnc(Cl)c3)n2)c(CC2CC2)n1
% of activity remaining [4]: 40% | % of activity remaining [5]: 45% | % of activity remaining [6]: 32%

O=C(c1ccc(C(=O)N2CCC(N3CCCC3)CC2)c(Nc2ccccc2)c1)N1CCC(N2CCCC2)CC1
% of control [7]: 64%

CC(=O)c1cc(-c2cc(C(=O)NC3CC3)ccc2C)c2ncccn12
% of control [8]: 25% | % of control [9]: 48% | % of control [10]: 47% | % of control [11]: 28% | % of control [12]: 14%

Cc1cc(-n2nc(Cc3cc(F)cc(C(F)(F)F)c3)nc2C)ccc1C(N)=O
% of control [13]: 49% | inhibition [14]: 21%

CCOc1cc(C(=O)N2CCC(N3CCN(C)CC3)CC2)ccc1Nc1ncc2c(n1)N(C1CCCC1)c1ccccc1C(=O)N2C
% of control [15]: 3.6% | % of control [16]: 5.1%

Cn1nc(C(F)(F)F)cc1-c1cnc(N2CCc3cc(S(=O)(=O)Nc4c(F)cc(Cl)cc4F)cc(N4CCCC4=O)c32)nc1
% of control [17]: 32% | % of control [18]: 12% | % of control [19]: 34%

Cc1nc(Cc2cccc(C(F)(F)F)c2)sc1-c1ccc(C(N)=O)nc1
% of control [20]: 35% | % of inhibition [21]: 34% | % of control [22]: 0.3% | % of control [23]: 15% | % of control [24]: 28% | % of control [25]: 0%

CC(C)Oc1ccc(-c2nn([C@@H](C)c3oc4ccc(F)cc4c(=O)c3-c3cccc(F)c3)c3ncnc(N)c23)cc1F
% of control [26]: 39%
